Laboratory results reported in US9758527B2, “Cyclohexene derivative, preparation method therefor, and pharmaceutical composition for preventing or treating metabolic diseases, containing same as active ingredient” (HYUNDAI PHARM CO., LTD., priority 2014, dated 2017).
Counter-ions that a name gives are not always drawn. Like-named read-outs stand apart in the source and are kept apart here.

Molecular target: T1, G protein-coupled receptor 119 (GPR-119) (Mesocricetus auratus, UniProt A0A1U8CD06)
T1 construct: hamster-derived β-cells containing G protein-coupled receptor 119 (GPR-119), HIT-T15 cells; host or cells: HIT-T15 (hamster pancreatic β-cells)
T1 sequence (A0A1U8CD06 1-334): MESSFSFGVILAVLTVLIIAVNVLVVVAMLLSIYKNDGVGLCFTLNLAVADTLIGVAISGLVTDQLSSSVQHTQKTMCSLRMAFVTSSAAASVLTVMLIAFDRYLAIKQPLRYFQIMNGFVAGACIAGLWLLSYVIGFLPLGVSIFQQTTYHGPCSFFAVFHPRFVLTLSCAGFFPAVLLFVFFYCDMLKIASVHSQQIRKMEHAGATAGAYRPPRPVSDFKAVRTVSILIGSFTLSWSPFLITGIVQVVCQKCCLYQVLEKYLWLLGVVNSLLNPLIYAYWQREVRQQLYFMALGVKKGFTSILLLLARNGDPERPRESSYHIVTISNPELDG
Assay: Evaluation of cAMP activity in HIT-T15 cells (HTRF cAMP dynamic kit)
Format: cell-based, hamster
Settings: cAMP activation
How it was run: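 HIT-T15 cells, 60,000/well, treated next day with compound at six concentrations ([…]) for 1 h at 37° C. Lysate cAMP quantified by HTRF competitive immunoassay (D2-cAMP, cryptate anti-cAMP); activity taken as change in FRET signal relative to DMSO.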

[1] = 1 h at 37° C., six concentrations, read-out: EC50
[2] = EC50 (nM), 1 h at 37° C., six concentrations

For `CC(C)c1noc(N2CCC(COc3ccc(C4=CCC(C(=O)NCC(F)F)CC4)cc3)CC2)n1` (centres unmarked) [Example 51, N-(2,2-difluoroethyl)-4-(4-((1-(3-isopropyl-1,2,4-oxadiazol-5-yl)piperidin-4-yl)methoxy)phenyl)cyclohex-3-enecarboxamide], the EC50 [1] was 66 nM.

For `CC(C)c1noc(N2CCC(COc3ccc(C4=CCC(C(=O)N5CCCCC5)CC4)cc3)CC2)n1` (centres unmarked) [Example 56, (4-(4-((1-(3-isopropyl-1,2,4-oxadiazol-5-yl)piperidin-4-yl)methoxy)phenyl)cyclohex-3-enyl)(piperidin-1-yl)methanone], the EC50 [1] was 30 nM and the EC50 (read-out: EC50 value) was at most 50 nM.

Compound `CCc1cnc(N2CCC(COc3ccc(C4=CCC(C(=O)N5CCN(CCO)CC5)CC4)cc3)CC2)nc1` (centres unmarked) [Example 172, (4-(4-((1-(5-ethylpyrimidin-2-yl)piperidin-4-yl)methoxy)phenyl)cyclohex-3-enyl)(4-(2-hydroxyethyl)piperazin-1-yl)methanone] has an EC50 [1] of 38 nM.

`CCc1cnc(N2CCC(COc3ccc(C4=CCC(C(=O)NC(CO)CO)CC4)cc3)CC2)nc1` (centres unmarked) [Example 15, N-(1,3-dihydroxypropan-2-yl)-4-(4-((1-(5-ethylpyrimidin-2-yl)piperidin-4-yl)methoxy)phenyl)cyclohex-3-enecarboxamide] showed an EC50 [1] of 370 nM.

With `CC(C)c1noc(N2CCC(COc3ccc(C4=CCC(C(=O)N5CCC(=O)CC5)CC4)cc3)CC2)n1` (centres unmarked) [Example 275, 1-(4-(4-((1-(3-isopropyl-1,2,4-oxadiazol-5-yl)piperidin-4-yl)methoxy)phenyl)cyclohex-3-enecarbonyl)piperidin-4-one] the EC50 [2] was 28 nM and the EC50 (EC50 value) was at most 50 nM.

Compound `CC(C)c1noc(N2CCC(COc3ccc(C4=CCC(C(=O)NCC(=O)N5CCOCC5)CC4)cc3F)CC2)n1` (centres unmarked) [Example 112, 4-(3-fluoro-4-((1-(3-isopropyl-1,2,4-oxadiazol-5-yl)piperidin-4-yl)methoxy)phenyl)-N-(2-morpholino-2-oxoethyl)cyclohex-3-enecarboxamide] has an EC50 [1] of 70 nM.

`CC(C)(C)OC(=O)N1CCC(COc2ccc(C3=CCC(C(=O)NCC(F)(F)F)CC3)c(F)c2)CC1` (centres unmarked) [Example 142, tert-butyl 4-((3-fluoro-4-(4-(2,2,2-trifluoroethylcarbamoyl)cyclohex-1-enyl)phenoxy)methyl)piperidine-1-carboxylate] was tested, and the EC50 [1] was 85 nM.

Work on `C[C@H](CO)NC(=O)C1CC=C(c2ccc(OCC3CCN(C(=O)OC(C)(C)C)CC3)cc2F)CC1` (stereo partly drawn) [Example 129, tert-butyl 4-((3-fluoro-4-(4-((R)-1-hydroxypropan-2-ylcarbamoyl)cyclohex-1-enyl)phenoxy)methyl)piperidine-1-carboxylate] yielded an EC50 [1] of 140 nM.

In the case of `CC(C)c1noc(N2CCC(COc3ccc(C4=CCC(C(=O)NCC(F)(F)F)CC4)cc3F)CC2)n1` (centres unmarked) [Example 92, 4-(3-fluoro-4-((1-(3-isopropyl-1,2,4-oxadiazol-5-yl)piperidin-4-yl)methoxy)phenyl)-N-(2,2,2-trifluoroethyl)cyclohex-3-enecarboxamide], the EC50 [1] is reported as 64 nM.

Compound `CC(C)c1noc(N2CCC(COc3ccc(C4=CCC(C(=O)NCC(F)F)CC4)cc3F)CC2)n1` (centres unmarked) [Example 93, N-(2,2-difluoroethyl)-4-(3-fluoro-4-((1-(3-isopropyl-1,2,4-oxadiazol-5-yl)piperidin-4-yl)methoxy)phenyl)cyclohex-3-enecarboxamide] has an EC50 [1] of 50 nM and an EC50 (read-out: EC50 value) of at most 50 nM.

Work on `CC(C)(C)OC(=O)N1CCC(COc2ccc(C3=CCC(C(=O)N4CC[C@@H](O)C4)CC3)cc2F)CC1` (stereo partly drawn) [Example 45, tert-butyl 4-((2-fluoro-4-(4-((R)-3-hydroxypyrrolidine-1-carbonyl)cyclohex-1-enyl)phenoxy)methyl)piperidine-1-carboxylate] yielded an EC50 [1] of 25 nM and an EC50 (read-out: EC50 value) of at most 50 nM.

`CC(C)c1noc(N2CCC(COc3ccc(C4=CCC(C(=O)NC[C@@H](C)O)CC4)nc3)CC2)n1` (stereo partly drawn) [Example 38, N-((R)-2-hydroxypropyl)-4-(5-((1-(3-isopropyl-1,2,4-oxadiazol-5-yl)piperidin-4-yl)methoxy)pyridin-2-yl)cyclohex-3-enecarboxamide] gave an EC50 [1] of 450 nM.

`CC(C)(C)OC(=O)N1CCC(COc2ccc(C3=CCC(C(=O)NC[C@@H](O)CO)CC3)nc2)CC1` (stereo partly drawn) [Example 10, tert-butyl 4-((6-(4-((R)-2,3-dihydroxypropylcarbamoyl)cyclohex-1-enyl)pyridin-3-yloxy)methyl)piperidine-1-carboxylate] showed an EC50 [1] of 500 nM.

`C[C@@H](O)CNC(=O)C1CC=C(c2ccc(OCC3CCN(C(=O)OC(C)(C)C)CC3)cc2F)CC1` (stereo partly drawn) [Example 126, tert-butyl 4-((3-fluoro-4-(4-((R)-2-hydroxypropylcarbamoyl)cyclohex-1-enyl)phenoxy)methyl)piperidine-1-carboxylate] was tested, and the EC50 [1] was 130 nM.

With `CC(C)(C)OC(=O)N1CCC(COc2ccc(C3=CCC(C(=O)N4CCC[C@H]4C(N)=O)CC3)cc2F)CC1` (stereo partly drawn) [Example 107, tert-butyl 4-((4-(4-((S)-2-carbamoylpyrrolidine-1-carbonyl)cyclohex-1-enyl)-2-fluorophenoxy)methyl)piperidine-1-carboxylate] the EC50 [1] was 35 nM and the EC50 (read-out: EC50 value) was at most 50 nM.

Compound `CC(C)(C)OC(=O)N1CCC(COc2ccc(C3=CCC(C(=O)NCC(F)F)CC3)c(F)c2)CC1` (centres unmarked) [Example 141, tert-butyl 4-((4-(4-(2,2-difluoroethylcarbamoyl)cyclohex-1-enyl)-3-fluorophenoxy)methyl)piperidine-1-carboxylate] has an EC50 [1] of 75 nM.

`CC(C)c1noc(N2CCC(COc3ccc(C4=CCC(C(=O)N5CCC6(CC5)OCCO6)CC4)cc3)CC2)n1` (centres unmarked) [Example 267, (4-(4-((1-(3-isopropyl-1,2,4-oxadiazol-5-yl)piperidin-4-yl)methoxy)phenyl)cyclohex-3-enyl)(1,4-dioxa-8-azaspiro[4.5]decan-8-yl)methanone] gave an EC50 [2] of 21 nM and an EC50 (EC50 value) of at most 50 nM.

`CC(C)c1noc(N2CCC(COc3ccc(C4=CCC(C(=O)N5CCC(CO)CC5)CC4)cc3)CC2)n1` (centres unmarked) [Example 183, (4-(hydroxymethyl)piperidin-1-yl)(4-(4-((1-(3-isopropyl-1,2,4-oxadiazol-5-yl)piperidin-4-yl)methoxy)phenyl)cyclohex-3-enyl)methanone] gave an EC50 [1] of 12 nM and an EC50 (read-out: EC50 value) of at most 50 nM.

Compound `CC(C)c1noc(N2CCC(COc3ccc(C4=CCC(C(=O)N[C@H](C)CO)CC4)cc3)CC2)n1` (stereo partly drawn) [Example 20, N-((R)-1-hydroxypropan-2-yl)-4-(4-((1-(3-isopropyl-1,2,4-oxadiazol-5-yl)piperidin-4-yl)methoxy)phenyl)cyclohex-3-enecarboxamide] has an EC50 [1] of 90 nM.

`CCc1cnc(N2CCC(COc3ccc(C4=CCC(C(=O)N5CCC[C@H]5C(N)=O)CC4)cc3)CC2)nc1` (stereo partly drawn) [Example 105, (2S)-1-(4-(4-((1-(5-ethylpyrimidin-2-yl)piperidin-4-yl)methoxy)phenyl)cyclohex-3-enecarbonyl)pyrrolidine-2-carboxamide] showed an EC50 [1] of 43 nM and an EC50 (read-out: EC50 value) of at most 50 nM.

`CCc1cnc(N2CCC(COc3ccc(C4=CCC(C(=O)N5CCCC5)CC4)cc3)CC2)nc1` (centres unmarked) [Example 166, (4-(4-((1-(5-ethylpyrimidin-2-yl)piperidin-4-yl)methoxy)phenyl)cyclohex-3-enyl)(pyrrolidin-1-yl)methanone hydrochloride] was tested, and the EC50 [1] was 22 nM.

With `CC(C)c1noc(N2CCC(COc3ccc(C4=CCC(C(=O)NC[C@H](C)O)CC4)nc3)CC2)n1` (stereo partly drawn) [Example 39, N-((S)-2-hydroxypropyl)-4-(5-((1-(3-isopropyl-1,2,4-oxadiazol-5-yl)piperidin-4-yl)methoxy)pyridin-2-yl)cyclohex-3-enecarboxamide] the EC50 [1] was 350 nM.

For `CC(C)(C)OC(=O)N1CCC(COc2ccc(C3=CCC(C(=O)NCCF)CC3)c(F)c2)CC1` (centres unmarked) [Example 138, tert-butyl 4-((3-fluoro-4-(4-(2-fluoroethylcarbamoyl)cyclohex-1-enyl)phenoxy)methyl)piperidine-1-carboxylate], the EC50 [1] was 100 nM.

For `CCc1cnc(N2CCC(COc3ccc(C4=CCC(C(=O)N5CCN(CC)CC5)CC4)cc3)CC2)nc1` (centres unmarked) [Example 55, (4-ethylpiperazin-1-yl)(4-(4-((1-(5-ethylpyrimidin-2-yl)piperidin-4-yl)methoxy)phenyl)cyclohex-3-enyl)methanone], the EC50 [1] was 100 nM.

`CC(C)c1noc(N2CCC(COc3ccc(C4=CCC(C(=O)N5CCC(CCO)CC5)CC4)cc3)CC2)n1` (centres unmarked) [Example 186, (4-(2-hydroxyethyl)piperidin-1-yl)(4-(4-((1-(3-isopropyl-1,2,4-oxadiazol-5-yl)piperidin-4-yl)methoxy)phenyl)cyclohex-3-enyl)methanone] was tested, and the EC50 (read-out: EC50 value) was at most 50 nM.

`CC(C)(C)OC(=O)N1CCC(COc2ccc(C3=CCC(C(=O)NC[C@@H](O)CO)CC3)cn2)CC1` (stereo partly drawn) [Example 32, tert-butyl 4-((5-(4-((R)-2,3-dihydroxypropylcarbamoyl)cyclohex-1-enyl)pyridin-2-yloxy)methyl)piperidine-1-carboxylate] showed an EC50 [1] of 650 nM.

With `CC(C)(C)OC(=O)N1CCC(COc2ccc(C3=CCC(C(=O)N4CCc5ccccc5C4)CC3)cc2)CC1` (centres unmarked) [Example 239, tert-butyl 4-((4-(4-(1,2,3,4-tetrahydroisoquinoline-2-carbonyl)cyclohex-1-enyl)phenoxy)methyl)piperidine-1-carboxylate] the EC50 [1] was 22 nM.
